System: C. acnes (ATCC reference 11827)
Experiment: Cutibacterium acnes Time-Kill Assay
Type: cell-based
Conditions: for Log-step reduction (16 h) / Log-step reduction (24 h): reduction compared to initial log cfu/ml of 5.38, n=3; for effect on C. acnes (reduction or growth promotion, in words): summary of the time-kill study
Procedure: Cutibacterium acnes Time-Kill Assay:
Seven different HMOs were screened for their potential anti-microbial activities against C. acnes (ATCC reference 11827). The action of ingredients and combinations thereof is assessed through a miniaturized method performed in liquid media in 96 deepwell plates format. The inhibition of the growth of C. acnes is compared to the same strain growth in corresponding optimal media.
The different ingredients are mixed at two different concentrations in growth medium (final volume 2 mL) in deepwell plates (n=3 for each concentration).
Analysis controls are prepared and used identically to samples: • A growth control of C. acnes in the corresponding culture medium; • A […] consisting of Phenoxyethanol prepared at 0.5% (v/v) directly in the culture medium.
Then, samples are contaminated with C. acnes, inoculum at final concentration of 3.7×10^5 CFU/mL, and incubated at 37° C.±2.5° C. during 24 h. At each defined timepoint (i.e. 30 min, 2 h, 4 h, 16 h and 24 h), a pick-up of the contaminated samples is performed (20 L) after gentle agitation.
To perform the counting, aliquots of the contaminated samples are serially diluted (decimal dilutions) in culture medium in 96-well plates with triphenyltetrazolium and incubated at 37° C.±2.5° C. during 48 h. After 48 h at the optimal growing conditions, the last dilution showing a pink color (triphenyltetrazolium) or turbidity indicates the contamination rate and allow the determination of the corresponding microbial population.
The results of the Time-Kill study are presented in the table below data are shown as log-step reduction compared to initial log cfu/ml of 5.38.

[1] = 0.10 wt.-% ingredient in growth medium
[2] = 0.5 wt.-% ingredient in growth medium

Row | Molecule | Log-step reduction (16 h) [1] [log-step] | Log-step reduction (24 h) [1] [log-step] | Log-step reduction (16 h) [2] [log-step] | Log-step reduction (24 h) [2] [log-step] | effect on C. acnes (reduction or growth promotion, in words)
1 | 2′-fucosyllactose [2′FL] | 0.5 | 0.5 | 1.5 | 1.5 | still provided a reduction of C. acnes
2 | 3-fucosyllactose [3FL (Ref), reference compound] |  |  | −0.4 | −0.4 | promoted C. acnes growth
3 | CC(=O)N[C@H]1[C@H](O[C@H]2[C@@H](O)[C@@H](CO)O[C@@H](O[C@H]3[C@H](O)[C@@H](O)C(O)O[C@@H]3CO)[C@@H]2O)O[C@H](CO)[C@@H](O[C@@H]2O[C@H](CO)[C@H](O)[C@H](O)[C@H]2O)[C@@H]1O (mixture of isomers) [LNnT (Ref), lacto-N-neotetraose, reference compound] | −0.4 | −0.4 | −0.5 | −0.5 | promoted C. acnes growth
4 | CC(=O)N[C@H]1[C@H](O[C@H]2[C@@H](O)[C@@H](CO)O[C@@H](O[C@H]3[C@H](O)[C@@H](O)C(O)O[C@@H]3CO)[C@@H]2O)O[C@H](CO)[C@@H](O)[C@@H]1O[C@@H]1O[C@H](CO)[C@H](O)[C@H](O)[C@H]1O (stereo partly drawn) [LNT, lacto-N-tetraose] | 0.5 | 0.5 | 0.5 | 0.5 | still provided a reduction of C. acnes
